Results taken from patent publication US20260151375A1, “CDK2 INHIBITORS AND METHODS OF USING THE SAME” (Cedilla Therapeutics, Inc., priority 2022, published 2026).

How the values were obtained:
Kuramochi cells = experiment: IncuCyte Kuramochi Assay (cell proliferation); type: cell-based; settings: 72 h, Kuramochi cells labeled with mApple-H2B, cell count, read-out: IncuCyte - Kuramochi RB-WT: IC50
Procedure, shortened: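 GI50 came from dose-response fits of cell-count fold change between 0 and 72 h, normalized to DMSO controls. Counts were fluorescent nuclei from live-cell images over a 10-point, ½ log series starting at 20 μM.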

CDK2/Cyclin E1 = target: T1, CDK2/Cyclin E1 (Homo sapiens, UniProt P24941); experiment: ADPGLO (CDK2/E1-37 C), ADP-Glo Luminescent Kinase Assay; type: biochemical; settings: 0.18 nM CDK2/Cyclin E1, 100 μM ATP, Histone H1, 37° C.
T1 construct: purchased 14-475
Experimental: Inhibition of CDK2/Cyclin E1 activity by the presence of small molecules was evaluated using ADP-Glo Luminescent Kinase Assay (Promega). Activated CDK2/Cyclin E1 was incubated with its substrate Histone H1 (SignalChem H10-54N) in the kinase reaction buffer (100 μM ATP, 50 mM HEPES pH 7.5, 10 mM MgCl2, 1 mM EDTA, 2 mM DTT, 0.01% Brij35, 0.5 mg/mL BSA). Luminescence was recorded with an Envision plate reader (PerkinElmer).
Dose titrations of inhibitors in 100% DMSO were combined with 0.36 nM CDK2/Cyclin E1 in reaction buffer. The mixtures were incubated for 60 minutes at 37° C. before the addition of ATP and Histone H1 substrate to initiate the kinase reaction. The final conditions were 0.18 nM CDK2/Cyclin E1, 100 μM ATP, and 1.5 μM Histone H1. The reactions were incubated at 37° C. for 90 minutes before being stopped with the addition of ADP-Glo reagent. This mixture was incubated at room temperature for 60 minutes before Kinase Detection Solution is added to generate luminescence. The stopped reactions were analyzed on an Envision plate reader. The conversion ratios were normalized to yield % activity, plotted against compound concentration, and fit to a four-parameter equation to determine the IC50 for each compound.

O=C(c1cc(O)n[nH]1)N1CC(c2nnc(C(F)(F)c3ccc(Cl)c(Cl)c3)o2)C2(C1)CN(C(=O)[C@H]1CC1(F)F)C2 (stereo partly drawn) [I-120, (8-(5-((3,4-dichlorophenyl)difluoromethyl)-1,3,4-oxadiazol-2-yl)-2-((R)-2,2-difluorocyclopropane-1-carbonyl)-2,6-diazaspiro[3.4]octan-6-yl)(3-hydroxy-1H-pyrazol-5-yl)methanone]
IC50 (Kuramochi cells): > 10 µM | IC50 (CDK2/Cyclin E1): > 10 µM

CC(c1nc(C2CN(C(=O)c3cnn(Cc4ccc(-c5nnn[nH]5)cc4)c3)CC23CN(C(=O)[C@H]2CC2(C)C)C3)no1)n1ccc(C2CCCC2)n1 (stereo partly drawn) [I-121, (1-(4-(1H-tetrazol-5-yl)benzyl)-1H-pyrazol-4-yl)(8-(5-(1-(3-cyclopentyl-1H-pyrazol-1-yl)ethyl)-1,2,4-oxadiazol-3-yl)-2-((S)-2,2-dimethylcyclopropane-1-carbonyl)-2,6-diazaspiro[3.4]octan-6-yl)methanone]
IC50 (Kuramochi cells): > 10 µM | IC50 (CDK2/Cyclin E1): 0.5 to 5 µM

CC(c1nc(C2CN(C(=O)c3cnn(Cc4ccc(C(=O)O)c(O)c4)c3)CC23CN(C(=O)[C@H]2CC2(C)C)C3)no1)n1ccc(C2CCCC2)n1 (stereo partly drawn) [I-122, 4-((4-(8-(5-(1-(3-cyclopentyl-1H-pyrazol-1-yl)ethyl)-1,2,4-oxadiazol-3-yl)-2-((S)-2,2-dimethylcyclopropane-1-carbonyl)-2,6-diazaspiro[3.4]octane-6-carbonyl)-1H-pyrazol-1-yl)methyl)-2-hydroxybenzoic acid]
IC50 (Kuramochi cells): > 10 µM | IC50 (CDK2/Cyclin E1): 5 to 10 µM

CC(c1nc(C2CN(C(=O)c3cnn(Cc4ccccc4C(=O)O)c3)CC23CN(C(=O)[C@H]2CC2(C)C)C3)no1)n1ccc(C2CCCC2)n1 (some centres unmarked) [I-123]
IC50 (Kuramochi cells): > 10 µM | IC50 (CDK2/Cyclin E1): ≤ 0.5 µM

CC(c1nc(C2CN(C(=O)c3cnn(Cc4ccc(OC(C)(C)C(=O)O)cc4)c3)CC23CN(C(=O)[C@H]2CC2(C)C)C3)no1)n1ccc(C2CCCC2)n1 (some centres unmarked) [I-124]
IC50 (Kuramochi cells): > 10 µM | IC50 (CDK2/Cyclin E1): 0.5 to 5 µM

CC(c1nc(C2CN(C(=O)c3cnn(Cc4ccc(C#N)cc4)c3)CC23CN(C(=O)C2(C(F)(F)F)CC2)C3)no1)n1ccc(C(F)(F)F)n1 (centres unmarked) [I-207]
IC50 (Kuramochi cells): > 10 µM | IC50 (CDK2/Cyclin E1): > 10 µM

C=CC(=O)N(C)c1cccc(Cc2ccc(Cn3cc(C(=O)N4CC(c5nnc(C(F)(F)c6ccc(Cl)c(Cl)c6)o5)C5(C4)CN(C(=O)C4(C(F)(F)F)CC4)C5)cn3)cc2)c1 (centres unmarked) [I-208]
IC50 (Kuramochi cells): > 10 µM | IC50 (CDK2/Cyclin E1): > 10 µM

O=C(c1cnc(O)cn1)N1CC(c2nnc(C(C(=O)N3CCC(c4nccs4)CC3)c3ccc(C4CCOCC4)cc3)o2)C2(C1)CN(C(=O)C1(C(F)(F)F)CC1)C2 (centres unmarked) [I-209]
IC50 (Kuramochi cells): ≤ 0.5 µM | IC50 (CDK2/Cyclin E1): > 10 µM

CC(c1nc(C2CN(C(=O)c3cnn(Cc4ccc(C#N)cc4)c3)CC23CN(C(=O)C2(C(F)(F)F)CC2)C3)no1)n1ccc(C2CCC(F)(F)CC2)n1 (centres unmarked) [I-210]
IC50 (Kuramochi cells): ≤ 0.5 µM | IC50 (CDK2/Cyclin E1): 0.5 to 5 µM

O=C(c1cnn(Cc2ccc(C(F)(F)F)cc2)c1)N1CC(c2noc(N(Cc3ccc(Cl)c(Cl)c3)CC3CCOCC3)n2)C2(C1)CN(C(=O)C1(C(F)(F)F)CC1)C2 (centres unmarked) [I-213, (8-(5-((3,4-dichlorobenzyl)((tetrahydro-2H-pyran-4-yl)methyl)amino)-1,2,4-oxadiazol-3-yl)-2-(1-(trifluoromethyl)cyclopropane-1-carbonyl)-2,6-diazaspiro[3.4]octan-6-yl)(1-(4-(trifluoromethyl)benzyl)-1H-pyrazol-4-yl)methanone]
IC50 (Kuramochi cells): 5 to 10 µM | IC50 (CDK2/Cyclin E1): > 10 µM

CC(c1nc(C2CN(C(=O)c3cnn(Cc4ccc(C#N)cc4C(=O)O)c3)CC23CN(C(=O)C2(C(F)(F)F)CC2)C3)no1)n1ccc(C2(C(F)(F)F)CC2)n1 (centres unmarked) [I-214]
IC50 (Kuramochi cells): > 10 µM | IC50 (CDK2/Cyclin E1): 0.5 to 5 µM

COC(=O)c1cc(C#N)ccc1Cn1cc(C(=O)N2CC(c3noc(C(C)n4ccc(C5(C(F)(F)F)CC5)n4)n3)C3(C2)CN(C(=O)C2(C(F)(F)F)CC2)C3)cn1 (centres unmarked) [I-215]
IC50 (Kuramochi cells): 5 to 10 µM | IC50 (CDK2/Cyclin E1): 0.5 to 5 µM

O=C(c1cnn(Cc2ccc(C(F)(F)F)cc2)c1)N1CC(c2nnc(C(C(=O)N3CCC(c4nccs4)CC3)c3ccc(C4CCOCC4)cc3)o2)C2(C1)CN(C(=O)C1(C(F)(F)F)CC1)C2 (centres unmarked) [I-216, 2-(4-(tetrahydro-2H-pyran-4-yl)phenyl)-1-(4-(thiazol-2-yl)piperidin-1-yl)-2-(5-(6-(1-(4-(trifluoromethyl)benzyl)-1H-pyrazole-4-carbonyl)-2-(1-(trifluoromethyl)cyclopropane-1-carbonyl)-2,6-diazaspiro[3.4]octan-8-yl)-1,3,4-oxadiazol-2-yl)ethan-1-one]
IC50 (Kuramochi cells): 0.5 to 5 µM | IC50 (CDK2/Cyclin E1): ≤ 0.5 µM

CC(c1nc(C2CN(C(=O)c3cnn(Cc4ccc(C(F)(F)F)cc4)c3)CC23CN(C(=O)C2(C(F)(F)F)CC2)C3)no1)n1ccc(C23CCC(CC2)OC3)n1 (centres unmarked) [I-217, (8-(5-(1-(3-(2-oxabicyclo[2.2.2]octan-4-yl)-1H-pyrazol-1-yl)ethyl)-1,2,4-oxadiazol-3-yl)-2-(1-(trifluoromethyl)cyclopropane-1-carbonyl)-2,6-diazaspiro[3.4]octan-6-yl)(1-(4-(trifluoromethyl)benzyl)-1H-pyrazol-4-yl)methanone]
IC50 (Kuramochi cells): 5 to 10 µM | IC50 (CDK2/Cyclin E1): 0.5 to 5 µM

CC(c1nc(C2CN(C(=O)c3cnn(Cc4ccc(C(F)(F)F)cc4C(=O)O)c3)CC23CN(C(=O)C2(C(F)(F)F)CC2)C3)no1)n1ccc(C2(C(F)(F)F)CC2)n1 (centres unmarked) [I-218, 5-(trifluoromethyl)-2-((4-(2-(1-(trifluoromethyl)cyclopropane-1-carbonyl)-8-(5-(1-(3-(1-(trifluoromethyl)cyclopropyl)-1H-pyrazol-1-yl)ethyl)-1,2,4-oxadiazol-3-yl)-2,6-diazaspiro[3.4]octane-6-carbonyl)-1H-pyrazol-1-yl)methyl)benzoic acid]
IC50 (Kuramochi cells): > 10 µM | IC50 (CDK2/Cyclin E1): > 10 µM

COC(=O)c1cc(C(F)(F)F)ccc1Cn1cc(C(=O)N2CC(c3noc(C(C)n4ccc(C5(C(F)(F)F)CC5)n4)n3)C3(C2)CN(C(=O)C2(C(F)(F)F)CC2)C3)cn1 (centres unmarked) [I-219, methyl 5-(trifluoromethyl)-2-((4-(2-(1-(trifluoromethyl)cyclopropane-1-carbonyl)-8-(5-(1-(3-(1-(trifluoromethyl)cyclopropyl)-1H-pyrazol-1-yl)ethyl)-1,2,4-oxadiazol-3-yl)-2,6-diazaspiro[3.4]octane-6-carbonyl)-1H-pyrazol-1-yl)methyl)benzoate]
IC50 (Kuramochi cells): > 10 µM | IC50 (CDK2/Cyclin E1): > 10 µM

CC(c1nc(C2CN(C(=O)c3cnn(Cc4ccccc4C(=O)O)c3)CC23CN(C(=O)C2(C(F)(F)F)CC2)C3)no1)n1ccc(C2(C(F)(F)F)CC2)n1 (centres unmarked) [I-220, 2-((4-(2-(1-(trifluoromethyl)cyclopropane-1-carbonyl)-8-(5-(1-(3-(1-(trifluoromethyl)cyclopropyl)-1H-pyrazol-1-yl)ethyl)-1,2,4-oxadiazol-3-yl)-2,6-diazaspiro[3.4]octane-6-carbonyl)-1H-pyrazol-1-yl)methyl)benzoic acid]
IC50 (Kuramochi cells): > 10 µM | IC50 (CDK2/Cyclin E1): 0.5 to 5 µM

CC1(C)C[C@@H]1C(=O)N1CC2(CN(C(=O)c3cncs3)CC2c2nc3ccc(Oc4ccccc4-c4cncs4)cc3o2)C1 (stereo partly drawn) [I-221, (2-((S)-2,2-dimethylcyclopropane-1-carbonyl)-8-(6-(2-(thiazol-5-yl)phenoxy)benzo[d]oxazol-2-yl)-2,6-diazaspiro[3.4]octan-6-yl)(thiazol-5-yl)methanone]
IC50 (Kuramochi cells): 5 to 10 µM | IC50 (CDK2/Cyclin E1): 0.5 to 5 µM

COC(=O)c1ccccc1Cn1cc(C(=O)N2CC(c3noc(C(C)n4ccc(C5(C(F)(F)F)CC5)n4)n3)C3(C2)CN(C(=O)C2(C(F)(F)F)CC2)C3)cn1 (centres unmarked) [I-222]
IC50 (Kuramochi cells): > 10 µM | IC50 (CDK2/Cyclin E1): > 10 µM
